Results published in patent US6359005B1, “Method for the treatment of mania and bipolar disorder” (Warner-Lambert Company, priority 1998, dated 2002).

Legend:
Metabolism in the body = details: in vivo
[1] = tested on: healthy subjects and patients suffering from anxiety; assay: Studies of healthy subjects and patients suffering from anxiety; assay type: in vivo, human
Excerpt: This is a novel use for pregabalin which would not be obvious to a medical practitioner of ordinary skill.
This effect will be beneficial in acute mania and will also lead to reducing the risk for onset of a new episode of mania in a predisposed individual. Thus, the prophylactic use of pregabalin for bipolar disorder is also taught.

[2] = Toxicity / tolerability of the compound; details: in vivo

**Q.** Which results are given for CC(C)C[C@H](CN)CC(=O)O [Pregabalin, (S)-3-(aminomethyl)-5-methylhexanoic acid]?
**A.** Metabolism in the body (Metabolism in the body): not metabolized in the body; Effects noted in subjects (sedation, calming) ([1]; healthy subjects and patients suffering from anxiety): sedative and calming effects; Effect on sleep ([1]; human, in vivo): enhance sleep; Tolerability [2]: well-tolerated
